The data set has as its system human hepatocytes. In words: Human hepatocyte stability test. The class given is in vitro ADME. The following applies: human hepatocyte suspension, percent of hepatic blood flow. The procedure:
A more comprehensive way to measure the metabolic stability of a compound of the instant invention than microsomal stability (section 5.6) is the human hepatocyte stability test as described below. Herein the metabolic degradation for the compound in question is performed in a human hepatocyte suspension.
Human hepatocytes (typically cryopreserved) are incubated in an appropriate buffer system (e.g. Dulbecco's modified eagle medium plus 3.5 μg glucagon/500 mL, 2.5 mg insulin/500 mL and 3.75 mg/500 mL hydrocortison) containing 5% species serum.
Following a (typically) 30 min preincubation in an incubator (37° C., 10% CO2) 5 μl of the solution of the compound to be tested ([…]; from 2 mM in DMSO stock solution diluted 1:25 with medium) are added into 395 μl hepatocyte suspension (cell density is in the range of 0.25-5 Mio cells/mL, typically 1 Mio cells/mL; the final concentration of the compound in question is […], the final DMSO concentration is 0.05%).
The cells are incubated for six hours (incubator, orbital shaker) and samples (25 μl) are taken at 0, 0.5, 1, 2, 4 and 6 hours. Samples are transferred into acetonitrile and pelleted by centrifugation (5 min). The supernatant is transferred to a new 96-deepwell plate, evaporated under nitrogen and resuspended.
The decline of the compound to be tested is analyzed by HPLC-MS/MS.
CLint is calculated as follows CL_INTRINSIC=Dose/AUC=(C0/CD)/(AUD+clast/k)×1000/60.
C0: initial concentration in the incubation [μM], CD: cell density of vital cells [10^6 cells/mL], AUD: area under the data [μM×h], clast: concentration of last data point [μM], k: slope of the regression line for the compound in question decline [h−1].
The calculated in vitro hepatic intrinsic clearance can be scaled up to the intrinsic in vivo hepatic Clearance and used to predict hepatic in vivo blood clearance (CL) by the use of a liver model (well stirred model). CL_INTRINSIC_INVIVO [ml/min/kg]=(CL_INTRINSIC [μL/min/10^6cells]×hepatocellularity[10^6 cells/g liver]×liver factor [g/kg bodyweight])/1000 CL [ml/min/kg]=CL_INTRINSIC_INVIVO [ml/min/kg]×hepatic blood flow [ml/min/kg]/(CL_INTRINSIC_INVIVO [ml/min/kg]+hepatic blood flow [ml/min/kg]) Qh[%]=CL [ml/min/kg]/hepatic blood flow [ml/min/kg]) […]
Hepatocellularity, human: 120×10^6 cells/g liver
Liver factor, human: 25.7 g/kg bodyweight
Blood flow, human: 21 ml/(min×kg)
A satisfying human hepatocyte stability for a compound in question measured by this assay is represented by a Qh<20% (whereby the stability is better, the lower the Qh-value is).

SMILES strings stand for the structures.

In the case of `C[C@@H](Oc1cc(-c2cnn(CCC(F)(F)F)c2)cc2nn(C)c(F)c12)[C@H]1CNC(=O)C1` [Example 12, (R)-4-((R)-1-{3-Fluoro-2-methyl-6-[1-(3,3,3-trifluoro-propyl)-1H-pyrazol-4-yl]-2H-indazol-4-yloxy}-ethyl)-pyrrolidin-2-one], the “stability in human hepatocytes (chapter 5.7) HEPhu” value was less than 4 % Qh.
Then `Cc1c2c(O[C@H](C)[C@H]3CNC(=O)O3)nc(-c3cnn(C(C)(C)C)c3)cc2nn1C` [Example 3, (R)-5-{(R)-1-[6-(1-tert-Butyl-1H-pyrazol-4-yl)-2,3-dimethyl-2H-pyrazolo[4,3-c]pyridin-4-yloxy]-ethyl}-oxazolidin-2-one], with 7 % Qh; and `C[C@@H](Oc1cc(-c2cnn(C3CC3)c2)cc2nn(C)c(F)c12)[C@H]1CNC(=O)C1` [Example 5, (R)-4-{(R)-1-[6-(1-Cycloprop-yl-1H-pyrazol-4-yl)-3-fluoro-2-methyl-2H-indazol-4-yloxy]-ethyl}-pyrrolidin-2-one], with less than 4 % Qh.
